“Also recorded” adds a separate entry of the source.
Assays:
[1] = system: PC3 prostate cancer, 4T1 and MDA-MB-231 breast cancer cells; assay: cell cytotoxicity of DOX conjugates in PC3, 4T1 and MDA-MB-231 cells; format: cell-based; conditions: at 2.5, 5 and 10 μM; compared with doxorubicin; FIG. 11
Description: The reason for the lower cytotoxicity is the slow release of DOX from the ZD2-AM-DOX conjugated with an amide bond.
The cell cytotoxicity of the ZD2-PEG-HZ-DOX was tested using PC3 prostate cancer, 4T1 and MDA-MB-231 breast cancer cells at concentrations of […].

[2] = system: DLD-1-DR drug resistant colon cancer, PANC-1 and BXPC3 pancreatic cancer, CAL27, SCC4 and HSC3 head and neck cancer cells, MDA-MB-231 and 4T1 breast cancer …; assay: cell cytotoxicity of ZD2-HZ-JAAP in cancer cell panel; format: cell-based; conditions: after 48 hours incubation; compared with JQ1 or JAAP; FIG. 2
Description: FIG. 2 provides graphs showing the cell viability of different cancer cells treated with ZD2-HZ-JAAP.
The cell cytotoxicity of ZD2-HZ-JAAP was tested using DLD-1-DR drug resistant colon cancer, PANC-1 and BXPC3 pancreatic cancer, CAL27, SCC4 and HSC3 head and neck cancer cells, MDA-MB-231 and 4T1 breast cancer cells, PC3 and C4-2 prostate cancer cells.

[3] = system: human MDA-MB-231 triple negative breast cancer tumors; assay: in vivo anti-tumor activity of ZD2-HZ-JAAP, MDA-MB-231 tumors; design: species or system nude mice
Description: The in vivo anti-tumor activity of ZD2-HZ-JAAP was evaluated in the nude mice carrying human MDA-MB-231 triple negative breast cancer tumors. The ZD2-HZ-JAAP drug conjugate was administrated to the mice with human MDA-MB-231 tumors by daily i.p. injection at a dose of 4.4 μmol/kg/day for 30 days. The tumor sizes and body weights of the mice were measured twice a week. The tumor growth was also monitored using bioluminescence imaging on the day 1, 16, and 25 after drug administration, and MRI imaging on the day 7 and 28 after the drug administration. For the ZD2-HZ-JAAP treatment group the tumor growth was inhibited with average tumor size of 80 mm^3 after 30-days of drug treatment, while for the no-treatment control group the tumors were kept growing with average tumor size of 580 mm^3 after 30-days of no treatment. […] In literature, the treatment dose of JQ1 is 50 mg/kg/day or 0.11 mmol/kg/day by i.p. injection to treat the mice with tumors. The dose of ZD2-HZ-JAAP administered by the inventors is 4.4 μmol/kg/day, which is 25-times lower than JQ1 dose. […] Since ZD2-HZ-JAAP is a target-drug that is delivered and accumulated to the tumor site, which results in low toxicity for normal tissues. Target-drug delivery results in high drug concentration at tumor site, and low concentration at normal tissues with efficient killing of tumor cells and low toxicity to normal cells.

[4] = system: PC3 prostate tumor xenografts; conditions: for tumor volume by the end of the treatment (mean±SD): daily i.p. 7.34 μmol/kg/day for 29 days, n=6, PBS control 1223±136 mm^3
Text: (§1) Anti-tumor efficacy of ZD2-HZ-JAAP conjugate was also investigated using the mice bearing PC3 prostate or 4T1 breast tumor xenografts. For tumor xenografts, PC3 prostate or 4T1 breast cancer cells suspended in Matrigel-PBS were subcutaneously injected into the flank of nude mice or mammary fat pads of BALB/C mice, respectively. Tumor volumes were monitored and measured twice a week using a Vernier caliper. When the average tumor volumes reached 100 mm^3 for PC3 tumors, and 45 mm^3 for 4T1 tumors, the mice bearing tumor xenografts were randomized into PBS control, JQ1 and ZD2-HZ-JAAP treatment groups (n=6 for PC3 tumors or 5 for 4T1 tumors). Free JQ1 and ZD2-HZ-JAAP conjugates were administrated by daily intraperitoneal injection for 29 days at a dose of 7.34 μmol/kg/day. Tumor size and bodyweight were monitored twice a week. The tumor sizes were measured with Vernier calipers, and tumor volumes were calculated using the equation V=(L*W2)/2.

[5] = system: 4T1 breast tumor xenografts; assay: anti-tumor efficacy of ZD2-HZ-JAAP, 4T1 breast tumor xenografts; format: in vivo, BALB/C mice; conditions: daily i.p. 7.34 μmol/kg/day for 29 days; n=5; PBS control 645±240 mm^3
Text: as §1

[6] = system: 4T1 breast tumor xenografts; conditions: i.p. 8.28 μmol/kg/week
Description: Anti-tumor efficacy of ZD2-HZ-DOX conjugate was investigated using the mice bearing 4T1 breast tumor xenografts. For tumor xenografts, 2×10^5 4T1 breast cancer cells suspended in Matrigel-PBS were injected into the mammary fat pads of each BALB/C mouse. Tumor volumes were monitored and measured twice a week using a Vernier caliper. When the average tumor volumes reached 100 mm^3, the BALB/C mice bearing 4T1 breast tumors were randomized into PBS control, free doxorubicin and ZD2-HZ-DOX treatment groups (n=5). Free doxorubicin and ZD2-HZ-DOX conjugates were administrated by intraperitoneal injection for 23 days at a dose of 8.28 μmol/kg/week with 3-injections per week, and 2.76 μmol/kg for each injection. Tumor size and bodyweight were monitored twice a week. The tumor sizes were measured with Vernier calipers, and tumor volumes were calculated using the equation V=(L*W2)/2.

Structure (SMILES): Cc1ccc(C(Cl)(c2ccccc2)c2ccccc2Cl)cc1 (stereo not shown) [ZD2-AM-DOX]
- cell cytotoxicity [1]: lower than that of doxorubicin

Structure (SMILES): Cc1ccc(C(Cl)(c2ccccc2)c2ccccc2Cl)cc1 (stereo not shown) [ZD2-HZ-JAAP]
- cell cytotoxicity [2]: lower than that of JQ1 or JAAP
- tumor growth inhibition ([3]; 4.4 μmol/kg/day, 25-times lower than literature JQ1 dose): efficiently inhibited the triple-negative breast cancer tumor growth
- average tumor size ([3]; after 30 days of treatment, daily i.p. 4.4 μmol/kg/day, no-treatment control 580 mm^3): 80 mm^3
- body weight of the mice ([3]; daily i.p. 4.4 μmol/kg/day for 30 days, vs no-treatment group): kept growing; also recorded: no significant difference
- tumor volume by the end of the treatment (mean±SD) [4]: 150±80 mm^3
- survival during treatment period ([4]; mice bearing PC3 or 4T1 tumors, 29 days of treatment, 7.34 μmol/kg/day i.p.): all mice were survived
- bodyweight change relative to initial weight ([4]; mice bearing PC3 or 4T1 tumors, daily i.p. 7.34 μmol/kg/day, 29 days): ≤ 10%
- tumor volume by the end of the treatment (mean±SD) [5]: 46±30 mm^3

Structure (SMILES): COc1cccc2c1C(=O)c1c(O)c3c(c(O)c1C2=O)C[C@@](O)(C(=O)CO)C[C@@H]3O[C@H]1C[C@H](N)[C@H](O)[C@H](C)O1 [doxorubicin]
- survival ([6]; 24-day treatment period): One mouse died on day 10, and all remaining mice died on day 11
- loss of bodyweight relative to initial weight ([6]; at day 10): 25%

Structure (SMILES): Cc1sc2c(c1C)C(c1ccc(Cl)cc1)=N[C@@H](CC(=O)OC(C)(C)C)c1nnc(C)n1-2 [JQ1, reference compound]
- tumor volume by the end of the treatment (mean±SD) [4]: 537±170 mm^3
- suppression of tumor growth ([4]; same dose as ZD2-HZ-JAAP, 7.34 μmol/kg/day i.p.): didn't efficiently suppress tumor growth

From US20240252662A1, “PEPTIDE DRUG CONJUGATES SPECIFIC TO FIBRONECTIN ISOTYPES FOR CANCER THERAPY” (priority 2021, published 2024)
